According to patent US8119568B2, “3-amino-1,2-benzisothiazole compounds for combating animal pest II” (BASF SE, priority 2007, dated 2012):

Assays:
[1] = tested on: Diamond Back Moth (plutella xylostella); experiment: Diamond back moth (plutella xylostella) test, Chinese cabbage leaves dipped; type: in vivo; conditions: 3rd instar larvae on dipped cabbage leaves, recorded 24, 72, and 120 hours after treatment, read-out: mortality in comparison with untreated controls (diamond back moth)
Procedure: (§1) In the following tests, the formulated solutions of the active compounds were diluted to an active ingredient concentration of 300 ppm and the diluted solutions were applied in the below mentioned tests.
The active compound is dissolved at the desired concentration in a mixture of 1:1 (vol:vol) distilled water:acteon. The test solution is prepared at the day of use.
Leaves of Chinese cabbage were dipped in test solution and air-dried. Treated cabbage leaves were placed in petri dished lined with moist filter paper and 3rd instar larvae were added. Mortality was recorded 24, 72, and 120 hours after treatment.

[2] = tested on: Cotton Aphid (Aphis gossypii); experiment: Cotton aphid (Aphis gossypii) test, infested cotton cotyledons dipped in test solution; type: in vivo; conditions: 120 h, determined after 5 days, read-out: mortality of cotton aphid (Aphis gossypii, mixed life stages) in comparison with untreated controls
Procedure: (§2) If not otherwise described, the active compounds were formulated in a mixture of 50 vol.-% acetone:50 vol.-% water. A nonionic surfactant (Kinetic®) was included in the solution at a volume of 0.01% v/v.
as §1
Cotton plants at the cotyledon stage were infested prior to treatment by placing a heavily infested leaf from the main aphid colony on top of each cotyledon. The aphids were allowed to transfer overnight and the host leaf was removed. The infested cotyledons were then dipped and agitated in the test solution for 3 seconds and allowed to dry in a fume hood. Test plants were maintained under fluorescent lighting in a 24-hr photoperiod at 25° C. and 20-40% relative humidity. Aphid mortality on the treated plants, relative to mortality on untreated check plants, was determined after 5 days.

[3] = tested on: Cowpea Aphid (aphis craccivora); experiment: Cowpea aphid (aphis craccivora) test, colonized potted cowpea plants sprayed; type: in vivo; conditions: assessed after 24, 72, and 120 hours, read-out: mortality in comparison with untreated controls (cowpea aphid)
Procedure: as §1
The active compound is dissolved at the desired concentration in a mixture of 1:1 (vol:vol) distilled water:acetone. The test solution is prepared at the day of use.
Potted cowpea plants colonized with approximately 100-150 aphids of various stages were sprayed after the pest population has been recorded. Population reduction was assessed after 24, 72, and 120 hours.

[4] = tested on: Green Peach Aphid (Myzus persicae); experiment: Green peach aphid (Myzus persicae) test, infested bell pepper leaves dipped in test solution; type: in vivo; conditions: 120 h, determined after 5 days, read-out: mortality of green peach aphid in comparison with untreated controls
Procedure: as §2, §1
Bell pepper plants at the first true-leaf stage were infested prior to treatment by placing heavily infested leaves from the main aphid colony on top of the treatment plants. The aphids were allowed to transfer overnight to accomplish an infestation of 30-40 aphids per plant and the host leaves were removed. The infested leaves of the test plants were then dipped and agitated in the test solution for 3 seconds and allowed to dry in a fume hood. Test plants were maintained under fluorescent lighting in a 24-hr photoperiod at 25° C. and 20-40% relative humidity. Mortality on the treated plants, relative to mortality on untreated check plants, was determined after 5 days.

[5] = tested on: Southern Armyworm (Spodoptera eridania), 2nd Instar Larvae; experiment: Southern armyworm (Spodoptera eridania) test, Sieva lima bean leaves dipped; type: in vivo; conditions: 96 h, 2nd instar larvae on dipped lima bean leaves, at 4 days, read-out: mortality in comparison with untreated controls (southern armyworm)
Procedure: as §1
The active compounds were formulated in 50:50 acetone:water (vol) and 100 ppm Kinetica™ surfactant.
A pair of first true leaves of Sieva lima bean was dipped into the test solution and allowed to dry. The leaves were then placed in a plastic perforated zip enclosure bag and ten 2nd instar larvae were added. At 4 days, observations were made of mortality and reduced feeding.

| Structure (SMILES) | mortality at 300 ppm [2] [%] | mortality at 300 ppm [3] [%] | mortality at 300 ppm [4] [%] | other results |
| --- | --- | --- | --- | --- |
| COc1cccc2snc(N(C)C(=O)c3cnccc3C(F)(F)F)c12 [compound 105] | ≥ 89 | > 89 | – | mortality at 300 ppm [1]: > 89% |
| CN(C(=O)c1cnccc1C(F)(F)F)c1nsc2cccc(Cl)c12 [compound 106] | ≥ 89 | > 89 | – | – |
| CCCC(=O)N(CC)c1nsc2cccc(OC(F)F)c12 [compound 118] | ≥ 89 | > 89 | ≥ 89 | – |
| CCN(C(=O)c1cc(C(F)(F)F)nn1-c1ncccc1Cl)c1nsc2cccc(OC(F)F)c12 [compound 81] | – | > 89 | – | – |
| O=C(Nc1nsc2cccc(Cl)c12)c1cc(Br)nn1-c1ncccc1Cl [compound 74] | – | – | – | mortality at 300 ppm [5]: > 89% |
| O=C(Nc1nsc2cccc(Cl)c12)c1cc(C(F)(F)F)nn1-c1ncccc1Cl [compound 75] | – | – | – | mortality at 300 ppm [5]: > 89% |
| CC(=O)N(C)c1nsc2cccc(OC(F)F)c12 [compound 25] | – | – | ≥ 89 | – |
| Cc1cccc2snc(NC(=O)c3cc(C(F)(F)F)nn3-c3ncccc3Cl)c12 [compound 113] | – | – | – | mortality at 300 ppm [1]: > 89%; mortality at 300 ppm [5]: > 89% |
| COc1cccc2snc(N(C)C(=O)c3cc(Br)nn3-c3ncccc3Cl)c12 [compound 94] | ≥ 89 | > 89 | – | – |
| COCC(=O)N(C)c1nsc2cccc(Cl)c12 [compound 87] | ≥ 89 | > 89 | ≥ 89 | – |
| CCN(C(=O)c1ccc(Cl)nc1)c1nsc2cccc(OC(F)F)c12 [compound 83] | – | – | ≥ 89 | – |
| CCN(C(=O)COC)c1nsc2cccc(OC(F)F)c12 [compound 77] | – | > 89 | ≥ 89 | – |
| CN(C(=O)c1ccc(C(F)(F)F)nc1)c1nsc2cccc(Cl)c12 [compound 108] | ≥ 89 | > 89 | – | – |
| CCN(C(=O)C(F)(F)F)c1nsc2cccc(OC(F)F)c12 [Compound example 26, N-(4-Difluoromethoxy-benzo[d]isothiazol-3-yl)-N-ethyl-2,2,2-trifluoro-acetamide] | – | – | – | melting point: 176 to 177 °C |
| O=C(Nc1nsc2cccc(OC(F)F)c12)c1cc(Br)nn1-c1ncccc1Cl [compound 89] | ≥ 89 | – | – | – |
| CN(C(=O)c1cnccc1C(F)(F)F)c1nsc2cccc(OC(F)F)c12 [compound 91] | ≥ 89 | – | – | – |
| COc1cccc2snc(N=S(C)C)c12 [compound 125] | ≥ 89 | – | ≥ 89 | – |
| CCN(C(=O)c1cc(C(F)(F)F)nn1-c1ncccc1Cl)c1nsc2cccc(OC)c12 [compound 86] | ≥ 89 | – | – | – |
| COCC(=O)N(C)c1nsc2cccc(OC(F)F)c12 [compound 76] | – | > 89 | ≥ 89 | – |
| CN(C(=O)c1ccc(Cl)nc1)c1nsc2cccc(OC(F)F)c12 [compound 82] | – | > 89 | ≥ 89 | – |
| CN(C(=O)c1cc(Br)nn1-c1ncccc1Cl)c1nsc2cccc(OC(F)F)c12 [compound 92] | ≥ 89 | – | – | – |
| O=C(Nc1nsc2cccc(Cl)c12)c1ccc(C(F)(F)F)nc1Cl [compound 115] | ≥ 89 | – | – | – |
